Key:
[1] = target: T1, BTK (Homo sapiens (Human), UniProt Q06187); test: In Vitro BTK Kinase Assay: BTK-POLYGAT-LS ASSAY; format: biochemical; details: fluorescein-labeled polyGAT peptide 100 nM, BTK enzyme 0.25 nM, 30 minutes, TRF
Outline: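 ATP […] and polyGAT peptide (100 nM), final concentrations, in Tris-HCl pH 7.5 kinase buffer with MgCl2, DTT, Triton X-100 and casein. Reaction run 30 min, stopped with EDTA, then 45 min at room temperature.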

[2] = target: T1, BTK; test: In Vitro PD Assay in Human Whole Blood (pBTK assay); format: cell-based; details: human heparinized whole blood, 37° C. for 30 min, total BTK capture and phosphotyrosine detection (ECL)
Outline: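 Heparinized human venous whole blood spiked with serially diluted compound (0.1% DMSO final) and incubated 30 min at 37° C. Lysed with protease/phosphatase inhibitors (high control +PPi, low control −PPi lacking phosphatase inhibitors); total BTK captured and phosphotyrosine detected.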

T1 sequence (Q06187 whole entry): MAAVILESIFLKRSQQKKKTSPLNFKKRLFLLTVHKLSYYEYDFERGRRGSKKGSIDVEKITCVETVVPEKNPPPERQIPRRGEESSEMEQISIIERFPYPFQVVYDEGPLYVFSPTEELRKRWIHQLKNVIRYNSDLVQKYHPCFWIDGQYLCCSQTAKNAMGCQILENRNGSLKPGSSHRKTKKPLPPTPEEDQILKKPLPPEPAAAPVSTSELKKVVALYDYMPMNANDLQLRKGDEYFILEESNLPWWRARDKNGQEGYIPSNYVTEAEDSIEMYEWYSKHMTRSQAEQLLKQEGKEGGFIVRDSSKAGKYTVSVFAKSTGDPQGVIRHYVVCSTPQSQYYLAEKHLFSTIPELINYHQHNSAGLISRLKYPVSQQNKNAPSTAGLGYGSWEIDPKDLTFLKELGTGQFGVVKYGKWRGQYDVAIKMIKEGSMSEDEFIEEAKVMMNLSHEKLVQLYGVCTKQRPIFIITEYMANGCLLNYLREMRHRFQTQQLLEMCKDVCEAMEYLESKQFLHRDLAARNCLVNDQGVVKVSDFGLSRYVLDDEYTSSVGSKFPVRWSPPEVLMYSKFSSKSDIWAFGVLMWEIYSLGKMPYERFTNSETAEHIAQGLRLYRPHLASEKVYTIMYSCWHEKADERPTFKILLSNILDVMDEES

SMILES | IC50 [1] [nM] | IC50 [2] [nM]
Cc1cc(-c2ncnc(Nc3ccn(C)n3)n2)ccc1CNC(=O)c1nc(C(C)(C)C)no1 [Compound 2, 3-(tert-butyl)-N-(2-methyl-4-(4-((1-methyl-1H-pyrazol-3-yl)amino)-1,3,5-triazin-2-yl)benzyl)-1,2,4-oxadiazole-5-carboxamide] | < 1 | 500 to 10000
Cn1cc(Nc2ncnc(-c3cc4c(cc3F)[C@H](NC(=O)c3nc(C(C)(C)C)no3)CCCC4)n2)cn1 [Compound 87, (R)-3-(tert-butyl)-N-(3-fluoro-2-(4-((1-methyl-1H-pyrazol-4-yl)amino)-1,3,5-triazin-2-yl)-6,7,8,9-tetrahydro-5H-benzo[7]annulen-5-yl)-1,2,4-oxadiazole-5-carboxamide] | < 1 | < 100
Cc1c(CNC(=O)c2noc(C3(C)CC3)n2)ccc(-c2ncnc(Nc3ccn(C)n3)n2)c1F [Compound 113, N-(3-fluoro-2-methyl-4-(4-((1-methyl-1H-pyrazol-3-yl)amino)-1,3,5-triazin-2-yl)benzyl)-5-(1-methylcyclopropyl)-1,2,4-oxadiazole-3-carboxamide] | < 1 | 100 to 500
Cn1ccc(Nc2ncnc(-c3ccc4c(c3)CN(C3COC3)CC[C@H]4NC(=O)c3coc(C(C)(C)C)n3)n2)n1 [Compound 94, (R)-2-(tert-butyl)-N-(8-(4-((1-methyl-1H-pyrazol-3-yl)amino)-1,3,5-triazin-2-yl)-2-(oxetan-3-yl)-2,3,4,5-tetrahydro-1H-benzo[c]azepin-5-yl)oxazole-4-carboxamide] | 1 to 10 | 100 to 500
Cc1c(CNC(=O)c2nc(C3(CF)CC3)no2)ccc(-c2ncnc(Nc3cnn(C)c3)n2)c1F [Compound 47, N-(3-fluoro-2-methyl-4-(4-((1-methyl-1H-pyrazol-4-yl)amino)-1,3,5-triazin-2-yl)benzyl)-3-(1-(fluoromethyl)cyclopropyl)-1,2,4-oxadiazole-5-carboxamide] | < 1 | < 100
Cn1cc(Nc2ncnc(-c3cc4c(cc3F)[C@H](NC(=O)c3noc(C(C)(C)C)n3)CCCC4)n2)cn1 [Compound 86, (R)-5-(tert-butyl)-N-(3-fluoro-2-(4-((1-methyl-1H-pyrazol-4-yl)amino)-1,3,5-triazin-2-yl)-6,7,8,9-tetrahydro-5H-benzo[7]annulen-5-yl)-1,2,4-oxadiazole-3-carboxamide] | < 1 | < 100
Cc1cc(-c2ncnc(Nc3cnn(C)c3)n2)c(F)cc1CNC(=O)c1noc(C2(C)CC2)n1 [Compound 59, N-(5-fluoro-2-methyl-4-(4-((1-methyl-1H-pyrazol-4-yl)amino)-1,3,5-triazin-2-yl)benzyl)-5-(1-methylcyclopropyl)-1,2,4-oxadiazole-3-carboxamide] | < 1 | 100 to 500
Cc1c([C@@H](C)NC(=O)c2noc(C(C)(C)C)n2)ccc(-c2ncnc(Nc3ccn(C)n3)n2)c1F [Compound 71, (R)-5-(tert-butyl)-N-(1-(3-fluoro-2-methyl-4-(4-((1-methyl-1H-pyrazol-3-yl)amino)-1,3,5-triazin-2-yl)phenyl)ethyl)-1,2,4-oxadiazole-3-carboxamide] | < 1 | 100 to 500
Cc1c([C@@H](C)NC(=O)c2noc(C(C)(C)C)n2)ccc(-c2ncnc(Nc3cnn(C)c3)n2)c1Cl [Compound 81, (R)-5-(tert-butyl)-N-(1-(3-chloro-2-methyl-4-(4-((1-methyl-1H-pyrazol-4-yl)amino)-1,3,5-triazin-2-yl)phenyl)ethyl)-1,2,4-oxadiazole-3-carboxamide] | < 1 | < 100
Cn1cc(Nc2ncnc(-c3ccc4c(c3)CN(CC(F)(F)F)CC[C@H]4NC(=O)c3coc(C(C)(C)C)n3)n2)cn1 [Compound 92, 2-tert-butyl-N-[(5R)-8-[4-[(1-methylpyrazol-4-yl)amino]-1,3,5-triazin-2-yl]-2-(2,2,2-trifluoroethyl)-1,3,4,5-tetrahydro-2-benzazepin-5-yl]oxazole-4-carboxamide] | < 1 | < 100
Cc1cc(-c2ncnc(Nc3cnn(C)c3)n2)ccc1CNC(=O)c1cn(C(C)(C)C)nn1 [Compound 109, 1-(tert-butyl)-N-(2-methyl-4-(4-((1-methyl-1H-pyrazol-4-yl)amino)-1,3,5-triazin-2-yl)benzyl)-1H-1,2,3-triazole-4-carboxamide] | 1 to 10 | 100 to 500
C[C@@H](NC(=O)c1noc(C(C)(C)C)n1)c1ccc(-c2ncnc(Nc3ccn(C)n3)n2)c(F)c1Cl [Compound 101, (R)-5-(tert-butyl)-N-(1-(2-chloro-3-fluoro-4-(4-((1-methyl-1H-pyrazol-3-yl)amino)-1,3,5-triazin-2-yl)phenyl)ethyl)-1,2,4-oxadiazole-3-carboxamide] | < 1 | 500 to 10000
Cc1c([C@@H](C)NC(=O)c2cc(C(C)(C)C)on2)ccc(-c2ncnc(Nc3cnn(C)c3)n2)c1F [Compound 76, (R)-5-(tert-butyl)-N-(1-(3-fluoro-2-methyl-4-(4-((1-methyl-1H-pyrazol-4-yl)amino)-1,3,5-triazin-2-yl)phenyl)ethyl)isoxazole-3-carboxamide] | < 1 | 100 to 500
Cc1c(-c2ncnc(Nc3cnn(C)c3)n2)ccc([C@@H](C)NC(=O)c2nc(C(C)(C)C)no2)c1Cl [Compound 78, (R)-3-(tert-butyl)-N-(1-(2-chloro-3-methyl-4-(4-((1-methyl-1H-pyrazol-4-yl)amino)-1,3,5-triazin-2-yl)phenyl)ethyl)-1,2,4-oxadiazole-5-carboxamide] | 1 to 10 | 100 to 500
Cc1c(CNC(=O)c2nc(C3(CF)CC3)no2)ccc(-c2ncnc(Nc3ccn(C)n3)n2)c1F [Compound 46, N-(3-fluoro-2-methyl-4-(4-((1-methyl-1H-pyrazol-3-yl)amino)-1,3,5-triazin-2-yl)benzyl)-3-(1-(fluoromethyl)cyclopropyl)-1,2,4-oxadiazole-5-carboxamide] | 1 to 10 | 500 to 10000
Cn1ccc(Nc2ncnc(-c3ccc(CNC(=O)c4noc(C5(C)CC5)n4)c(Cl)c3F)n2)n1 [Compound 104, N-(2-chloro-3-fluoro-4-(4-((1-methyl-1H-pyrazol-3-yl)amino)-1,3,5-triazin-2-yl)benzyl)-5-(1-methylcyclopropyl)-1,2,4-oxadiazole-3-carboxamide] | < 1 | 500 to 10000
Cc1c(CNC(=O)c2noc(C3(C(F)(F)F)CC3)n2)ccc(-c2ncnc(Nc3ccn(C)n3)n2)c1F [Compound 52, N-(3-fluoro-2-methyl-4-(4-((1-methyl-1H-pyrazol-3-yl)amino)-1,3,5-triazin-2-yl)benzyl)-5-(1-(trifluoromethyl)cyclopropyl)-1,2,4-oxadiazole-3-carboxamide] | 1 to 10 | 500 to 10000
Cn1cc(Nc2ncnc(-c3ccc(CNC(=O)c4noc(C(C)(C)C)n4)c(Cl)c3F)n2)cn1 [Compound 28, 5-(tert-butyl)-N-(2-chloro-3-fluoro-4-(4-((1-methyl-1H-pyrazol-4-yl)amino)-1,3,5-triazin-2-yl)benzyl)-1,2,4-oxadiazole-3-carboxamide] | < 1 | < 100
Cc1c([C@@H](C)NC(=O)c2nc(C(C)(C)C)no2)ccc(-c2ncnc(Nc3cnn(C)c3)n2)c1F [Compound 74, (R)-3-(tert-butyl)-N-(1-(3-fluoro-2-methyl-4-(4-((1-methyl-1H-pyrazol-4-yl)amino)-1,3,5-triazin-2-yl)phenyl)ethyl)-1,2,4-oxadiazole-5-carboxamide] | < 1 | < 100
Cc1cc(-c2ncnc(Nc3cnn(C)c3)n2)c(F)cc1CNC(=O)c1noc(C2(CF)CC2)n1 [Compound 51, N-(5-fluoro-2-methyl-4-(4-((1-methyl-1H-pyrazol-4-yl)amino)-1,3,5-triazin-2-yl)benzyl)-5-(1-(fluoromethyl)cyclopropyl)-1,2,4-oxadiazole-3-carboxamide] | < 1 | 100 to 500
C[C@@H](NC(=O)c1noc(C(C)(C)C)n1)c1ccc(-c2ncnc(Nc3ccn(C)n3)n2)c(F)c1C(F)F [Compound 82, (R)-5-(tert-butyl)-N-(1-(2-(difluoromethyl)-3-fluoro-4-(4-((1-methyl-1H-pyrazol-3-yl)amino)-1,3,5-triazin-2-yl)phenyl)ethyl)-1,2,4-oxadiazole-3-carboxamide] | 1 to 10 | 500 to 10000
Cn1ccc(Nc2ncnc(-c3ccc(CNC(=O)c4nc(C(C)(C)C)no4)c(Cl)c3F)n2)n1 [Compound 22, 3-(tert-butyl)-N-(2-chloro-3-fluoro-4-(4-((1-methyl-1H-pyrazol-3-yl)amino)-1,3,5-triazin-2-yl)benzyl)-1,2,4-oxadiazole-5-carboxamide] | < 1 | 500 to 10000
Cn1ccc(Nc2ncnc(-c3ccc4c(c3)CCCC[C@H]4NC(=O)c3noc(C(C)(C)C)n3)n2)n1 [Compound 23, 5-tert-butyl-N-[(5R)-2-[4-[(1-methylpyrazol-3-yl)amino]-1,3,5-triazin-2-yl]-6,7,8,9-tetrahydro-5H-benzo[7]annulen-5-yl]-1,2,4-oxadiazole-3-carboxamide] | < 1 | 100 to 500
Cc1cc(-c2ncnc(Nc3cnn(C)c3)n2)ccc1CNC(=O)c1cc(C(C)(C)C)no1 [Compound 108, 3-(tert-butyl)-N-(2-methyl-4-(4-((1-methyl-1H-pyrazol-4-yl)amino)-1,3,5-triazin-2-yl)benzyl)isoxazole-5-carboxamide] | < 1 | 100 to 500
Cc1cc(-c2ncnc(Nc3cnn(C)c3)n2)c(F)cc1CNC(=O)c1cc(C(C)(C)C)on1 [Compound 64, 5-(tert-butyl)-N-(5-fluoro-2-methyl-4-(4-((1-methyl-1H-pyrazol-4-yl)amino)-1,3,5-triazin-2-yl)benzyl)isoxazole-3-carboxamide] | < 1 | 500 to 10000

Reference: patent US10899753B2, “Inhibiting agents for Bruton's tyrosine kinase” (BIOGEN MA INC., priority 2018, dated 2021)
